Measured values as given in publication PMC11589570, “Critical assessment of LC3/GABARAP ligands used for degrader development and ligandability of LC3/GABARAP binding pockets” (Nature Communications, 2024).
Values joined by “and” are separate entries in the source; they are usually repeats but may differ in a detail not shown here. Equal values may be shown once.

Legend:
[1] = test system: LC3/GABARAPs (human Atg8 family); assay: FP assay with Cy5-labelled p62 LIR tracer, statements on all LC3/GABARAPs; format: binding
LC3A [2] = biological target: T1, LC3A (Homo sapiens, UniProt Q9H492); assay: Spectral shift assay (Dianthus), cysteine-labelled protein; format: binding; conditions: Repeat 1 and Repeat 2
Procedure: Affinity determination using spectral shift mode on Dianthus: To determine dissociation constants, the Dianthus instrument (NanoTemper Technologies GmbH, Germany) was used to monitor molecular interactions. […] Protein was labelled with RED-maleimide 2nd Generation (cat# MO-L014; NanoTemper Technologies GmbH). Labeling was carried out following the manufacturer protocol, using a 3:1 ratio dye:protein. […] Protein was purified in 30 mM HEPES, 100 mM NaCl, 0.05% Tween, pH 7.5. […] Measurements were performed in spectral shift mode with an LED excitation power of 100%. Data were analyzed using the DI.Screening Analysis Software (v.2.0.4) (NanoTemper Technologies GmbH, Germany) and quality criteria values including Δ Ratio, Signal-to-Noise-Ratio, Fit Saturation and KD values were determined.

[3] = biological target: T2, NanoLuc-fusion full-length LC3A (Homo sapiens, UniProt Q9H492); assay: NanoBRET cellular target engagement assay in HEK293T cells; format: cell-based; conditions: LC3A; 1 µM tracer; compound 4 for tracer 16, compound 3 for tracer 17
T2 construct: a fluorescent donor (in this case full length LC3A and LC3B); expressed in transfected cells; host or cells: HEK293T (ATCC; CRL-11268)
Procedure: (§1) NanoBRET cellular target engagement assay: Constructs contained the cDNA of full-length LC3A and LC3B cloned in frame with an N-terminal NanoLuc-fusion. Plasmids were transfected into HEK293T (ATCC; CRL-11268) cells using FuGENE HD (Promega, E2312) and proteins were allowed to express for 20 h. 10O5 and 8F20-based tracers were titrated to the protein as depicted in Supplementary Fig. 4d. For competition experiments, 1 µM of the tracers was pipetted into white 384-well plates (Greiner 781 207) using an Echo 550 acoustic dispenser (Labcyte) containing LC3A/LC3B expressing transfected cells at a density of 2.5 × 10^5 cells/mL in Opti-MEM without phenol red (Life Technologies). The system was allowed to equilibrate for 2 h at 37 °C and 5% CO2 prior to BRET measurements. To measure BRET, NanoBRET NanoGlo Substrate + Extracellular NanoLuc Inhibitor (Promega, N2540) was added as per the manufacturer’s protocol, and filtered luminescence was measured on a PHERAstar plate reader (BMG Labtech) equipped with a luminescence filter pair (450 nm BP filter (donor) and 610 nm LP filter (acceptor)). Competitive displacement data were then plotted using GraphPad Prism 9.3 software using a normalized 3-parameter curve fit. A detailed step-by-step protocol for this assay is described in Schwalm..

[4] = biological target: T3, NanoLuc-fusion full-length LC3B (Homo sapiens, UniProt Q9GZQ8); assay: as above; format: cell-based; conditions: LC3B; 1 µM tracer; compound 4 for tracer 16, compound 3 for tracer 17
T3 construct: a fluorescent donor (in this case full length LC3A and LC3B); expressed in transfected cells; host or cells: HEK293T (ATCC; CRL-11268)
Procedure: as §1

[5] = Cell viability measurements; format: cell-based; design: Cell viability: scale not given here; conditions: two replicate columns
Description: 1 Source data for Supplementary Fig. 8a-f are provided as a Source Data file.

LC3A [6] = biological target: T1, LC3A; assay: FP assay with 10O5- and 8F20-based dye-linked tracers 16 and 17; conditions: LC3A; compound 3 for tracer 17, compound 4 for tracer 16
Description: The only experimental difference in our FP assay setup was the addition of 0.05% Tween-20, which is routinely used[27] to suppress unspecific binding of compounds to proteins.
Fluorescence polarization assay utilizing tracers 16 and 17 for interaction studies with LC3A
(upper panels) and LC3B (lower panels). The left panels depict protein titration measurements
detergent in the buffer to suppress unspecific binding. Middle panels depict displacement
Data were collected in technical
triplicates with error bars expressing the SD (n=3).

With CCCCCCC(Sc1nc(Cl)cc(Nc2nc(-c3ccc(C(=O)O)cc3)cs2)n1)C(=O)O (centres unmarked) [compound 21] the “interaction with LC3/GABARAP family members in FP displacement assay” value [1] was “interacted with all LC3/GABARAPs”.

For O=C1Nc2ccc(I)cc2C1=Cc1cc(Br)c(O)c(Br)c1 [compound 4], the “interaction with LC3/GABARAP family members in FP displacement assay” value [1] was “weak interaction of 10O5 (4) with GABARAP family members”, the “Initial Fluorescence” value (LC3A [2]; compound 15.2588 nM titrated against LC3A, listed as 10O5 (4)) was 5485.239 and 8498.012 and the “Initial Fluorescence” value (LC3A [2]; compound 30.5176 nM titrated against LC3A, listed as 10O5 (4)) was 4967.649 and 8590.938. The “Initial Fluorescence” value (LC3A [2]; compound 61.0352 nM titrated against LC3A, listed as 10O5 (4)) was 3893.892 and 7432.185, the “Initial Fluorescence” value (LC3A [2]; compound 122.07 nM titrated against LC3A, listed as 10O5 (4)) was 3715.765 and 5942.313 and the “Initial Fluorescence” value (LC3A [2]; compound 244.141 nM titrated against LC3A, listed as 10O5 (4)) was 3805.917 and 4785.866. For the same compound, the “Initial Fluorescence” value (LC3A [2]; compound 488.281 nM titrated against LC3A, listed as 10O5 (4)) was 2784.925 and 3093.111, the “Initial Fluorescence” value (LC3A [2]; compound 976.562 nM titrated against LC3A, listed as 10O5 (4)) was 3008.559 and 2759.079 and the “Initial Fluorescence” value (LC3A [2]; compound 1953.12 nM titrated against LC3A, listed as 10O5 (4)) was 2614.532 and 2461.361. For the same compound, the “Initial Fluorescence” value (LC3A [2]; compound 3906.25 nM titrated against LC3A, listed as 10O5 (4)) was 2609.726 and 2127.302, the “Initial Fluorescence” value (LC3A [2]; compound 7812.5 nM titrated against LC3A, listed as 10O5 (4)) was 2627.775 and 2205.232 and the “Initial Fluorescence” value (LC3A [2]; compound 15625 nM titrated against LC3A, listed as 10O5 (4)) was 2084.943 and 1892.122. For the same compound, the “Initial Fluorescence” value (LC3A [2]; compound 31250 nM titrated against LC3A, listed as 10O5 (4)) was 1913.624 and 1771.147, the “Initial Fluorescence” value (LC3A [2]; compound 62500 nM titrated against LC3A, listed as 10O5 (4)) was 1934.175 and 2136.348 and the “Initial Fluorescence” value (LC3A [2]; compound 125000 nM titrated against LC3A, listed as 10O5 (4)) was 2010.201 and 1874.865. For the same compound, the “Initial Fluorescence” value (LC3A [2]; compound 250000 nM titrated against LC3A, listed as 10O5 (4)) was 1863.832 and 1842.946, the “Initial Fluorescence” value (LC3A [2]; compound 500000 nM titrated against LC3A, listed as 10O5 (4)) was 1618.141 and 1654.997 and the “NanoBRET signal / tracer displacement” value [3] was “No displacement”. For the same compound, the “NanoBRET signal / tracer displacement” value [4] was “No displacement”, the viability at 20 µM ([5]; log concentration [M] -4.69897) was 104% and the Cell viability ([5]; log concentration [M] -4.69897, listed as 10O5) was 92.5568. For the same compound, the viability at 7.5 µM ([5]; log concentration [M] -5.12494) was 94.8%, the Cell viability ([5]; log concentration [M] -5.12494, listed as 10O5) was 95.6466 and the viability at 2.5 µM ([5]; log concentration [M] -5.60206) was 94.2%. For the same compound, the Cell viability ([5]; log concentration [M] -5.60206, listed as 10O5) was 97.1871, the viability at […] ([5]; log concentration [M] -6.00436) was 95.7% and the Cell viability ([5]; log concentration [M] -6.00436, listed as 10O5) was 90.9151. It also gave a viability at 0.3 µM ([5]; log concentration [M] -6.52288) of 104%, a Cell viability ([5]; log concentration [M] -6.52288, listed as 10O5) of 93.3208 and a viability at 0.125 µM ([5]; log concentration [M] -6.90309) of 101%. For the same compound, the Cell viability ([5]; log concentration [M] -6.90309, listed as 10O5) was 92.1984, the viability at 0.05 µM ([5]; log concentration [M] -7.30103) was 103% and the Cell viability ([5]; log concentration [M] -7.30103, listed as 10O5) was 94.2945. The viability at 0.01625 µM ([5]; log concentration [M] -7.78915) was 101%, the Cell viability ([5]; log concentration [M] -7.78915, listed as 10O5) was 89.5849 and the viability at […] ([5]; log concentration [M] -8.06399) was 103%. The Cell viability ([5]; log concentration [M] -8.06399, listed as 10O5) was 99.4914, the viability at 0.005 µM ([5]; log concentration [M] -8.30103) was 99.7% and the Cell viability ([5]; log concentration [M] -8.30103, listed as 10O5) was 88.3293. For the same compound, the viability at 0.0021 µM ([5]; log concentration [M] -8.67778) was 100%, the Cell viability ([5]; log concentration [M] -8.67778, listed as 10O5) was 90.0519 and the “displacement of dye-linked tracer by parent compound” value (LC3A [6]) was “no displacement”.

For Cc1ccc(C(=O)N(CCCN)[C@@H](c2nc3cc(Cl)ccc3c(=O)n2Cc2ccccc2)C(C)C)cc1 [compound 3, (R)-N-(3-aminopropyl)-N-(1-(3-benzyl-7-chloro-4-oxo-3,4-dihydroquinazolin-2-yl)−2-methylpropyl)−4-methylbenzamide], the “Initial Fluorescence” value (LC3A [2]; compound 15.2588 nM titrated against LC3A, listed as 8F20 (3)) was 10115.139 and 10590.376, the “Initial Fluorescence” value (LC3A [2]; compound 30.5176 nM titrated against LC3A, listed as 8F20 (3)) was 10801.294 and 10751.715 and the “Initial Fluorescence” value (LC3A [2]; compound 61.0352 nM titrated against LC3A, listed as 8F20 (3)) was 10969.053 and 11514.474. The “Initial Fluorescence” value (LC3A [2]; compound 122.07 nM titrated against LC3A, listed as 8F20 (3)) was 10805.714 and 11350.170, the “Initial Fluorescence” value (LC3A [2]; compound 244.141 nM titrated against LC3A, listed as 8F20 (3)) was 12437.260 and 12829.142 and the “Initial Fluorescence” value (LC3A [2]; compound 488.281 nM titrated against LC3A, listed as 8F20 (3)) was 11460.432 and 11424.556. The “Initial Fluorescence” value (LC3A [2]; compound 976.562 nM titrated against LC3A, listed as 8F20 (3)) was 11304.154 and 11789.590, the “Initial Fluorescence” value (LC3A [2]; compound 1953.12 nM titrated against LC3A, listed as 8F20 (3)) was 11136.164 and 11540.347 and the “Initial Fluorescence” value (LC3A [2]; compound 3906.25 nM titrated against LC3A, listed as 8F20 (3)) was 11540.226 and 11678.705. For the same compound, the “Initial Fluorescence” value (LC3A [2]; compound 7812.5 nM titrated against LC3A, listed as 8F20 (3)) was 12368.631 and 13118.831, the “Initial Fluorescence” value (LC3A [2]; compound 15625 nM titrated against LC3A, listed as 8F20 (3)) was 13549.037 and 11303.453 and the “Initial Fluorescence” value (LC3A [2]; compound 31250 nM titrated against LC3A, listed as 8F20 (3)) was 12093.613 and 11816.274. For the same compound, the “Initial Fluorescence” value (LC3A [2]; compound 62500 nM titrated against LC3A, listed as 8F20 (3)) was 12824.797 and 12883.571, the “Initial Fluorescence” value (LC3A [2]; compound 125000 nM titrated against LC3A, listed as 8F20 (3)) was 12380.010 and 12980.949 and the “Initial Fluorescence” value (LC3A [2]; compound 250000 nM titrated against LC3A, listed as 8F20 (3)) was 12405.646 and 13536.280. The “NanoBRET signal / tracer displacement” value [3] was “No displacement”, the “NanoBRET signal / tracer displacement” value [4] was “No displacement” and the viability at 20 µM ([5]; log concentration [M] -4.69897) was 0.689%. It also gave a Cell viability ([5]; log concentration [M] -4.69897, listed as 8F20) of 1.283, a viability at 7.5 µM ([5]; log concentration [M] -5.12494) of 91.3% and a Cell viability ([5]; log concentration [M] -5.12494, listed as 8F20) of 92.2351. The viability at 2.5 µM ([5]; log concentration [M] -5.60206) was 96.5%, the Cell viability ([5]; log concentration [M] -5.60206, listed as 8F20) was 100.107 and the viability at […] ([5]; log concentration [M] -6.00436) was 93.4%. The Cell viability ([5]; log concentration [M] -6.00436, listed as 8F20) was 93.5465, the viability at 0.3 µM ([5]; log concentration [M] -6.52288) was 103% and the Cell viability ([5]; log concentration [M] -6.52288, listed as 8F20) was 93.076. It also gave a viability at 0.125 µM ([5]; log concentration [M] -6.90309) of 105%, a Cell viability ([5]; log concentration [M] -6.90309, listed as 8F20) of 93.9495 and a viability at 0.05 µM ([5]; log concentration [M] -7.30103) of 102%. For the same compound, the Cell viability ([5]; log concentration [M] -7.30103, listed as 8F20) was 103.3, the viability at 0.01625 µM ([5]; log concentration [M] -7.78915) was 96.5% and the Cell viability ([5]; log concentration [M] -7.78915, listed as 8F20) was 90.0205. The viability at […] ([5]; log concentration [M] -8.06399) was 103%, the Cell viability ([5]; log concentration [M] -8.06399, listed as 8F20) was 92.6947 and the viability at 0.005 µM ([5]; log concentration [M] -8.30103) was 99.5%. It also gave a Cell viability ([5]; log concentration [M] -8.30103, listed as 8F20) of 91.472, a viability at 0.0021 µM ([5]; log concentration [M] -8.67778) of 99.1% and a Cell viability ([5]; log concentration [M] -8.67778, listed as 8F20) of 90.5247. The “displacement of dye-linked tracer by parent compound” value (LC3A [6]) was “no displacement”.
